# Legend:
# [1] = system: A498; assay: NCI one-dose screen; format: cell-based; conditions: Homo sapiens; A498, 10 µM; read-out: Growth Percent
# In short: (§1)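 NCI-60 protocol, one dose: 10 µM compound, 59 human lines (breast, ovarian, melanoma, leukaemia, renal, CNS, lung, prostate, colon). Output expressed as growth percent.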
# [2] = system: BT-549; assay: NCI one-dose screen; format: cell-based; conditions: Homo sapiens; BT-549, 10 µM; read-out: Growth Percent
# In short: as §1
# [3] = system: CAKI-1; assay: NCI one-dose screen; format: cell-based; conditions: Homo sapiens; CAKI-1, 10 µM; read-out: Growth Percent
# In short: as §1
# [4] = system: COLO 205; assay: NCI one-dose screen; format: cell-based; conditions: Homo sapiens; COLO 205, 10 µM; read-out: Growth Percent
# In short: as §1
# [5] = system: EKVX; assay: NCI one-dose screen; format: cell-based; conditions: Homo sapiens, read-out: Growth Percent
# In short: as §1
# [6] = system: HCT-15; assay: NCI one-dose screen; format: cell-based; conditions: Homo sapiens; HCT-15, 10 µM; read-out: Growth Percent
# In short: as §1
# [7] = system: HL-60(TB); assay: NCI one-dose screen; format: cell-based; conditions: Homo sapiens, read-out: Growth Percent
# [8] = system: HOP-92; assay: NCI one-dose screen; format: cell-based; conditions: Homo sapiens; HOP-92, 10 µM; read-out: Growth Percent
# In short: as §1
# [9] = system: HS 578T; assay: NCI one-dose screen; format: cell-based; conditions: Homo sapiens, read-out: Growth Percent
# In short: as §1
# [10] = system: K-562; assay: NCI one-dose screen; format: cell-based; conditions: Homo sapiens, K562; K-562, 10 µM; read-out: Growth Percent
# In short: as §1
# [11] = system: KM12; assay: NCI one-dose screen; format: cell-based; conditions: Homo sapiens; KM12, 10 µM; read-out: Growth Percent
# In short: as §1
# [12] = system: M14; assay: NCI one-dose screen; format: cell-based; conditions: Homo sapiens; M14, 10 µM; read-out: Growth Percent
# In short: as §1
# [13] = system: MALME-3M; assay: NCI one-dose screen; format: cell-based; conditions: Homo sapiens, read-out: Growth Percent
# In short: as §1
# [14] = system: MCF7; assay: NCI one-dose screen; format: cell-based; conditions: Homo sapiens; MCF7, 10 µM; read-out: Growth Percent
# In short: as §1
# [15] = system: MDA-MB-231/ATCC; assay: NCI one-dose screen; format: cell-based; conditions: Homo sapiens, read-out: Growth Percent
# In short: as §1
# [16] = system: MOLT-4; assay: NCI one-dose screen; format: cell-based; conditions: Homo sapiens; MOLT-4, 10 µM; read-out: Growth Percent
# In short: as §1
# [17] = system: NCI-H23; assay: NCI one-dose screen; format: cell-based; conditions: Homo sapiens; NCI-H23, 10 µM; read-out: Growth Percent
# In short: as §1
# [18] = system: NCI/ADR-RES; assay: NCI one-dose screen; format: cell-based; conditions: Homo sapiens, read-out: Growth Percent
# In short: as §1
# [19] = system: OVCAR-3; assay: NCI one-dose screen; format: cell-based; conditions: Homo sapiens; OVCAR-3, 10 µM; read-out: Growth Percent
# In short: as §1
# [20] = system: OVCAR-5; assay: NCI one-dose screen; format: cell-based; conditions: Homo sapiens; OVCAR-5, 10 µM; read-out: Growth Percent
# In short: as §1
# [21] = system: SF-268; assay: NCI one-dose screen; format: cell-based; conditions: Homo sapiens; SF-268, 10 µM; read-out: Growth Percent
# In short: as §1
# [22] = system: SF-295; assay: NCI one-dose screen; format: cell-based; conditions: Homo sapiens; SF-295, 10 µM; read-out: Growth Percent
# In short: as §1
# [23] = system: SF-539; assay: NCI one-dose screen; format: cell-based; conditions: Homo sapiens; SF-539, 10 µM; read-out: Growth Percent
# In short: as §1
# [24] = system: SK-MEL-28; assay: NCI one-dose screen; format: cell-based; conditions: Homo sapiens; SK-MEL-28, 10 µM; read-out: Growth Percent
# In short: as §1
# [25] = system: SK-MEL-2; assay: NCI one-dose screen; format: cell-based; conditions: Homo sapiens; SK-MEL-2, 10 µM; read-out: Growth Percent
# In short: as §1
# [26] = system: T-47D; assay: NCI one-dose screen; format: cell-based; conditions: Homo sapiens, T47D, read-out: Growth Percent
# In short: as §1
# [27] = system: U251; assay: NCI one-dose screen; format: cell-based; conditions: Homo sapiens, U-251; U251, 10 µM; read-out: Growth Percent
# In short: as §1
# [28] = system: UO-31; assay: NCI one-dose screen; format: cell-based; conditions: Homo sapiens; UO-31, 10 µM; read-out: Growth Percent
# In short: as §1
# [29] = system: HCT116 cells; assay: Analysis of cell cycle distribution; format: cell-based, human; conditions: HCT116, different concentrations, 24 h
# Text: Generally, the mammalian cells counteract the DNA damage by different mechanisms including the cell cycle arrest to allow the cell to repair the damage. There are 2 checkpoints that control DNA damage. The first checkpoint is at the G1/S transition while the other checkpoint is at the G2/M transition. To cover the mechanisms of the synthesised compounds in inhibiting cell proliferation, we analysed the distribution of cell cycle of HCT116 cells following the treatment with different doses of 4a, 4b, 4e, 4i, and 4j. […] See Supplementary Appendix A.
Structure (SMILES),activity at 10 µM [1] [%],activity at 10 µM [2] [%],activity at 10 µM [3] [%],activity at 10 µM [4] [%],activity at 10 µM [5] [%],activity at 10 µM [6] [%],activity at 10 µM [7] [%],activity at 10 µM [8] [%],activity at 10 µM [9] [%],activity at 10 µM [10] [%],activity at 10 µM [11] [%],activity at 10 µM [12] [%],activity at 10 µM [13] [%],activity at 10 µM [14] [%],activity at 10 µM [15] [%],activity at 10 µM [16] [%],activity at 10 µM [17] [%],activity at 10 µM [18] [%],activity at 10 µM [19] [%],activity at 10 µM [20] [%],other results
"O=C(/C=C/c1ccc(F)cc1)c1ccc(-n2cc(CN3CCN(c4cc5c(cc4F)c(=O)c(C(=O)O)cn5C4CC4)CC3)nn2)cc1 [Compound 4e, (E)-1-cyclopropyl-6-fluoro-7–(4-((1–(4-(3-(4-fluorophenyl)acryloyl)phenyl)-1H-1,2,3-triazol-4-yl)methyl)piperazin-1-yl)-4-oxo-1,4-dihydroquinoline-3-carboxylic acid]",61.1,32,36.9,105,87.5,63.4,84.6,50.3,57.5,21.9,32.9,60.9,89.2,24.2,65.3,31.8,80.3,92.1,46.6,84.2,activity at 10 µM [21]: 35.7%; activity at 10 µM [22]: 81.2%; activity at 10 µM [23]: 27.9%; activity at 10 µM [24]: 68%; activity at 10 µM [25]: 89%; activity at 10 µM [26]: 76.8%; activity at 10 µM [27]: 16.6%; activity at 10 µM [28]: 62.8%; cell cycle distribution [29]: induced G2/M phase cell cycle arrest in a concentration-dependent manner
"O=C(/C=C/c1ccccc1)c1ccc(-n2cc(CN3CCN(c4cc5c(cc4F)c(=O)c(C(=O)O)cn5C4CC4)CC3)nn2)cc1 [Compound 4a, (E) 7-(4-((1–(4-Cinnamoylphenyl)-1H-1,2,3-triazol-4-yl)methyl)piperazin-1-yl)-1-cyclopropyl-6-fluoro-4-oxo-1,4-dihydroquinoline-3-carboxylic acid]",76.7,102,87.8,110,88.5,93.8,99,79.9,80.6,101,84.9,90.1,94.9,72.9,97.1,102,83.5,87.9,90.4,103,activity at 10 µM [21]: 85.3%; activity at 10 µM [22]: 95.9%; activity at 10 µM [23]: 92.6%; activity at 10 µM [24]: 99.3%; activity at 10 µM [25]: 96.4%; activity at 10 µM [26]: 96.4%; activity at 10 µM [27]: 98.4%; activity at 10 µM [28]: 63.1%; cell cycle distribution [29]: induced G2/M phase cell cycle arrest in a concentration-dependent manner

# Source: publication PMC9116245, “New 1,2,3-triazole linked ciprofloxacin-chalcones induce DNA damage by inhibiting human topoisomerase I& II and tubulin polymerization” (Journal of Enzyme Inhibition and Medicinal Chemistry, 2022)
